# In PubChem BioAssay (NCI):
# Several values for one entry are separate records, joined by “and”; a condition that tells them apart may be missing. Equal entries are not always repeated.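 How tested: cells in 96-well plates exposed to compound for 48 hours at five concentrations. TGI marks complete inhibition of growth.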
# How the values were obtained:
# Test in all cases: inhibition of tumour cell growth, NCI panel, 48 h
# MOLT-4 leukemia = test system: MOLT-4 leukemia
# SK-MEL-28 melanoma = test system: SK-MEL-28 melanoma
# CCRF-CEM leukemia = test system: CCRF-CEM leukemia
# K-562 leukemia = test system: K-562 leukemia
# UACC-62 melanoma = test system: UACC-62 melanoma
# OVCAR-3 ovarian = test system: OVCAR-3 ovarian
# HCC-2998 colon = test system: HCC-2998 colon
# DU-145 prostate = test system: DU-145 prostate
# SNB-75 CNS = test system: SNB-75 CNS
# KM12 colon = test system: KM12 colon
# SW-620 colon = test system: SW-620 colon
# OVCAR-4 ovarian = test system: OVCAR-4 ovarian
# SK-OV-3 ovarian = test system: SK-OV-3 ovarian
Compound,TGI (MOLT-4 leukemia) [µM],TGI (SK-MEL-28 melanoma),TGI (CCRF-CEM leukemia),TGI (K-562 leukemia),TGI (UACC-62 melanoma) [µM],TGI (OVCAR-3 ovarian) [µM],TGI (HCC-2998 colon) [µM],TGI (DU-145 prostate) [µM],TGI (SNB-75 CNS) [µM],TGI (KM12 colon) [µM],TGI (SW-620 colon) [µM],TGI (OVCAR-4 ovarian) [µM],TGI (SK-OV-3 ovarian) [µM]
CC1=C(C)SC(=C2Sc3c(n(C)c(=O)[nH]c3=O)S2)S1,> 100,> 100 µM,> 100 µM,> 100 µM,> 100,> 100,> 100,> 100,> 100,> 100,> 100,> 100,> 100
COc1ccc(C)c2c1N[C@](C)([C@]1(C)Nc3c(OC)ccc(C)c3C1=O)C2=O,> 100,> 100 µM,> 100 µM,> 100 µM,> 100,> 100,> 100,> 100,,> 100,> 100,> 100,> 100
COc1cc(-c2c[nH]c3ccccc23)nc(-c2c[nH]c3ccccc23)n1,15.3,,3.08 µM,17.7 µM,18.6,19.6,13,23.9,17.7,16.2,20.3,28.8,22.8
CCOC(=O)/C(C#N)=C(/NS(=O)(=O)c1cc(C)c(Cl)cc1[S-])[n+]1ccc(N(C)C)cc1,> 100,> 100 µM,> 100 µM,> 100 µM,> 100,> 100,> 100,> 100,,> 100,,> 100,> 100
COc1ccc(C2Oc3c(cccc3OC)C=C2[N+](=O)[O-])cc1OC (configuration not stated),> 100,20.5 µM,> 100 µM,> 100 µM,17.9,67.9,,> 100,> 100,34,,> 100,17.9
CCCCCCCC1c2cc3[nH]c(cc4nc(cc5[nH]c(cc(n2)[C@@]1(C)CC(=O)N(C)C)c(C)c5CCC(=O)O)C(CCC(=O)O)=C4C)cc3C (some centres not stated),,35.8 µM,42.6 µM,56.7 µM,33.1,37.1,37.8,57,40,58.5,> 100,> 100,> 100
CC1CCCOc2ccc(cc2)C=Nc2ccc(cc2)CCc2ccc(cc2)N=Cc2ccc(cc2)OCCC1 (configuration not stated),> 100,> 100 µM,> 100 µM,> 100 µM,> 100,> 100,> 100,> 100,> 100,> 100,> 100,> 100,
COC(=O)c1cc(NC2OCC(OC(C)=O)C(OC(C)=O)C2OC(C)=O)nc(SC)c1C(=O)OC (configuration not stated),> 100,> 100 µM,> 100 µM,,> 100,> 100,> 100,> 100,> 100,> 100,> 100,> 100,
CCOC(=O)C1C(=O)CC(C)(O)C(C(=O)OCC)C1c1ccc(N(C)C)cc1 (configuration not stated),> 100,> 100 µM,> 100 µM,> 100 µM,> 100,> 100,> 100,> 100,> 100,> 100,> 100,> 100,
CC(=O)c1ccc(-c2oc(-c3ccccc3)cc2-c2ccc3c(c2)OCO3)s1,> 100,,2.99 µM,> 100 µM,> 100,> 100,> 100,> 100,> 100,,> 100,,> 100
CNC(=O)Nc1cc2c3c(c1)CCCN3CCC2,,> 10 µM,> 10 µM,> 10 µM,> 10,> 10,> 10,> 10,> 10,> 10,> 10,> 10,> 10
CC1CC(N)=Nc2ccccc2N1Cc1ccccc1 (configuration not stated),18.4,23.8 µM,33.7 µM,15.7 µM,27.2,24.9,,32.7,20.8,28.2,25.2,34.5,25.9
N#Cc1c(C#N)c(-c2cccc([N+](=O)[O-])c2)n(-c2ccccc2)c1N,> 100,,> 100 µM,> 100 µM,> 100,> 100,> 100,> 100,61,> 100,> 100,> 100,> 100
CN(CCc1ccc(Br)cc1)CCN1CCCCC1,> 100,52.1 µM,36.6 µM,41.5 µM,,> 100,> 100,> 100,85.4,41.9,> 100,> 100,> 100
COC(=O)c1cc(Br)c(C(=O)C(Cl)(Cl)Cl)[nH]1,> 100,> 100 µM,> 100 µM,> 100 µM,> 100,> 100,,> 100,> 100,> 100,> 100,> 100,> 100
O=c1c2cccnc2[nH]c2ccc3scnc3c12,> 10,> 10 µM,> 10 µM,,> 10,> 10,> 10,> 10,> 10,> 10,> 10,> 10,> 10
COc1ccc(-c2oc3c(CC(=O)O)cccc3c(=O)c2OC)cc1,> 100,,> 100 µM,> 100 µM,> 100,> 100,> 100,> 100,,,,,> 100
COC(=O)CCc1ccc2c(c1)CCC2,> 100,> 100 µM,> 100 µM,,> 100,> 100,> 100,> 100,> 100,> 100,> 100,> 100,> 100
CCOC(=O)c1sc2nc(SC)nc(Nc3ccc4c(c3)OCCCO4)c2c1N,8.25,> 100 µM,> 100 µM,> 100 µM,> 100,75.9,> 100,> 100,,> 100,> 100,> 100,> 100
CC(=O)N1NC(c2ccccc2)=CC(=O)/C1=C/C(=O)c1ccccc1,> 100,> 100 µM,> 100 µM,> 100 µM,> 100,> 100,> 100,> 100,,> 100,,> 100,> 100
CC(=O)OCc1nc(C#N)c(N)o1,> 100,> 100 µM,> 100 µM,> 100 µM,> 100,> 100,> 100,> 100,,> 100,> 100,> 100,> 100
O=C1CC2[C@@H](N3CCCC3)CCC(N1Cc1ccccc1)C2(O)O (some centres not stated),> 100,> 100 µM,> 100 µM,> 100 µM,> 100,> 100,> 100,> 100,,> 100,> 100,,> 100
Cc1[nH]c2c(C)ccc(C)c2c1CC(=O)O,54.1,> 100 µM,42.3 µM,> 100 µM,> 100,> 100,> 100,> 100,,> 100,> 100,> 100,> 100
Cc1nnc(Nc2ccc(Cl)cc2)o1,,> 10 µM,> 10 µM,> 10 µM,> 10,> 10,> 10,> 10,> 10,> 10,> 10,> 10,> 10
CC(C)[Si](OC12CCC(CC1O)CC2C(=O)O)(C(C)C)C(C)C (configuration not stated),> 100,24.2 µM,70 µM,> 100 µM,27.6,28,,33.7,28.1,26.2,41.9,25.1,27.2
CC(=O)O[C@H]1C(=O)[C@@]2(C)C(C(OC(=O)c3ccccc3)[C@]3(O)CC(OC(=O)C(O)C(NC(=O)c4ccccc4)c4ccc(F)cc4)C(C)=C1C3(C)C)[C@]1(OC(C)=O)CO[C@@H]1C[C@@H]2O (some centres not stated),2.73,,> 10 µM,> 10 µM,> 10,,0.0193,0.0104,> 10,> 5.45,> 10,> 10,> 10
CCC1(O)CC(OC2CC(N(C)C)C(OC3CC(O)C(OC4OC(C)C(=O)C=C4N)C(C)O3)C(C)O2)c2c(O)c3c(c(O)c2C1C(=O)OC)C(=O)c1cccc(O)c1C3=O (configuration not stated),,0.17 µM and 0.0205 µM,0.0761 µM and 0.0126 µM,0.125 µM and 0.0234 µM,0.0375,0.15,0.118,0.0461,0.223,0.2,0.0845,,
CCc1cc(-c2nsc(=O)o2)c(S(=O)(=O)CC)s1,,> 100 µM,> 100 µM,> 100 µM,,> 100,> 100,> 100,> 100,> 100,> 100,> 100,> 100
